Measurements taken from patent publication US20250177406A1, “PHARMACEUTICAL COMPOSITION FOR TREATING TUMORS” (Eisai R&D Management Co., Ltd., priority 2022, published 2025).
Where two headings read alike, the source gives them in different places.

Columns and labels:
[1] = system: xenograft model with the KRAS G12C mutation-positive human non-small cell lung cancer cell line NCI-H358; experiment: Antitumor effect of combined administration with adagrasib in xenograft model (tumor volume); type: in vivo, nude mice; set-up: unit not given beside the values; conditions: adagrasib 10 mg/kg, once per day, oral
Method: Experimental conditions for drug efficacy test using mice with different cell lines (suspension media, cell counts for transplantation, lineages of mice, administered drugs, days of initiation of administration, test periods) were shown in Table 5. Each cell line was prepared with suspension medium to reach an intended cell count for transplantation, and the resulting suspension was subcutaneously transplanted into nude mice (6-week-old, female) at the body flank.
The long diameter and short diameter of tumors generated in each mouse were measured with a Digimatic Caliper (manufactured by Mitutoyo Corp.) twice a week from day 1 as the day of initiation of administration to the final day of the test.
The tumor volume was calculated by the following formula.
Numbers in Table 6 each indicate mean±standard error (SEM) of tumor volume. In the test carried out, six mice were used per group.

[2] = system: xenograft model with the KRAS G12C mutation-positive human colorectal cancer cell line SW837; conditions: sotorasib 100 mg/kg, once per day, oral
[3] = system: xenograft model with the KRAS G12C mutation-positive human non-small cell lung cancer cell line NCI-H358; conditions: sotorasib 100 mg/kg, once per day, oral
Method: Matrigel/HBSS (50:50) was added to a KRAS G12C mutation-positive human non-small cell lung cancer cell line, NCI-358 cells, to prepare a cell suspension of 8×10^6 cells. The cell suspension was subcutaneously transplanted into nude mice (CAnN.Cg-Foxn1 nu/CrlCrlj, from Charles River Laboratories Japan, Inc.) at the body flank. Six mice were used per group. The date of transplantation was defined as day 1. […] No drug was administered to the control group.
The date of the initiation of administration was defined as day 1. On days 4, 8, 11, and 15, the long diameter and short diameter of tumors generated in each mouse were measured with a Digimatic Caliper (manufactured by Mitutoyo Corp.).

[4] = system: xenograft model with the KRAS G12C mutation-positive human bladder cancer cell line UM-UC-3; conditions: UM-UC-3 xenograft, E7386 25 mg/kg, sotorasib 100 mg/kg, once per day, oral
[5] = system: KRAS G12D mutation-positive human endometrial cancer cell line HEC-1-B; experiment: Cell growth inhibitory activity of combined treatment, ultra-low adsorption plate, CellTiter-Glo 3D, 5 days; type: cell-based; conditions: 120 h, MRTX1133 alone
Method: (§1) With different KRAS mutation-positive cell lines, combined treatment of the compound represented by formula (I) and a KRAS inhibitor was evaluated on growth inhibitory activity. […] Cells were seeded in 96-well flat-bottomed ultra-low adsorption plate (manufactured by Corning Incorporated) at 5000 cells/well, and cultured at 5% CO2 and 37° C. for 1 day. […] The drug solutions were prepared by diluting their DMSO stocks with medium to specific concentrations, and added in such a manner that the volume of the culture medium reached 100 μL/well after addition of the drugs. After the culture for 5 days, 30 μL of CellTiter-Glo 3D Reagent (manufactured by Promega Corporation) was added to each well and reacted under shading for 30 minutes, and 50-μL portions were then transferred into a separate white 96-well plate (manufactured by Greiner Bio-One International GmbH), and the emission intensity of luciferase was measured with a plate reader (manufactured by PerkinElmer, Inc.). The measurement values were defined as the relative cell counts.

[6] = system: KRAS G12D mutation-positive human bile duct cancer cell line SNU-869; experiment: as above; type: cell-based; conditions: 120 h, SNU-869, MRTX1133 alone
Method: as §1

GI50 [5] [nM]	GI50 [6] [nM]	SMILES	tumor volume, mean ± SEM ([1]; Day 4, E7386 25 mg/kg)	tumor volume, mean ± SEM ([1]; Day 8, E7386 25 mg/kg)	tumor volume, mean ± SEM ([1]; Day 11, E7386 25 mg/kg)	tumor volume, mean ± SEM ([1]; Day 15, E7386 25 mg/kg)	tumor volume, mean ± SEM ([1]; Day 18, E7386 25 mg/kg)	tumor volume, mean ± SEM ([2]; Day 5, E7386 25 mg/kg)	tumor volume, mean ± SEM ([2]; Day 12, E7386 25 mg/kg)	tumor volume, mean ± SEM ([3]; Day 11, E7386 25 mg/kg)	tumor volume, mean ± SEM ([3]; Day 15, E7386 25 mg/kg)	tumor volume, mean ± SEM ([4]; Day 5)	tumor volume, mean ± SEM ([4]; Day 12)	tumor volume, mean ± SEM ([4]; Day 15)
–	–	C=CCN1CC(=O)N2[C@@H](Cc3ccc(O)cc3F)C(=O)N(Cc3cccc(N4CC(N5CCN(CC)CC5)C4)n3)C[C@@H]2N1C(=O)NCc1ccccc1 [E7386, (6S,9aS)-N-benzyl-8-((6-(3-(4-ethylpiperazin-1-yl)azetidin-1-yl)pyridin-2-yl)methyl)-6-((2-fluoro-4-hydroxyphenyl)methyl)-4,7-dioxo-2-(prop-2-en-1-yl)-octahydro-1H-pyrazino[2,1-c][1,2,4]triazine-1-carboxamide]	251.2 ± 8.1	327.4 ± 24.9	445.0 ± 26.3	579.1 ± 45.1	729.2 ± 56.7	221.5 ± 9.5	340.9 ± 17.5	519.9 ± 34.1	714.4 ± 55.5	337.4 ± 20.9	1487.0 ± 59.7	2526.8 ± 123.1
5.37	1.79	C#Cc1c(F)ccc2cc(O)cc(-c3ncc4c(N5CC6CCC(C5)N6)nc(OC[C@@]56CCCN5C[C@@H](F)C6)nc4c3F)c12 [MRTX1133, 4-(4-((1R,5S)-3,8-diazabicyclo[3.2.1]octan-3-yl)-8-fluoro-2-(((2R,7aS)-2-fluorohexahydro-1H-pyrrolidin-7a-yl)methoxy)pyrodo[4,3-d]pyrimidin-7-yl)-5-et hynyl-6-fluoronaphthalen-2-ol]	–	–	–	–	–	–	–	–	–	–	–	–
